Laboratory results from PubChem BioAssay (NCI).
Values joined by “and” are separate entries in the source; they are usually repeats but may differ in a detail not shown here. Equal entries are not always repeated.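 Step 1: Grow cells in 96-well plates. Step 2: Expose to compound for 48 hours at 5 concentrations. Step 3: Interpolate endpoints linearly; if unreached, use highest concentration. GI50 marks 50% less growth. TGI: concentration producing complete growth inhibition.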

Experiments:
Experiment in all cases: DTP human tumour cell line panel, 48 h
CAKI-1 renal = test system: CAKI-1 renal
LOX IMVI melanoma = test system: LOX IMVI melanoma
SK-OV-3 ovarian = test system: SK-OV-3 ovarian
HT29 colon = test system: HT29 colon
PC-3 prostate = test system: PC-3 prostate
786-0 renal = test system: 786-0 renal
OVCAR-4 ovarian = test system: OVCAR-4 ovarian
CCRF-CEM leukemia = test system: CCRF-CEM leukemia
SF-539 CNS = test system: SF-539 CNS
HCC-2998 colon = test system: HCC-2998 colon

Compound	GI50 (CAKI-1 renal)	TGI (CAKI-1 renal) [µM]	GI50 (LOX IMVI melanoma)	TGI (LOX IMVI melanoma)	GI50 (SK-OV-3 ovarian)	TGI (SK-OV-3 ovarian)	GI50 (HT29 colon)	TGI (HT29 colon)	GI50 (PC-3 prostate)	TGI (PC-3 prostate) [µM]	GI50 (786-0 renal)	TGI (786-0 renal) [µM]	GI50 (OVCAR-4 ovarian)	TGI (OVCAR-4 ovarian) [µM]	GI50 (CCRF-CEM leukemia)	TGI (CCRF-CEM leukemia)	GI50 (SF-539 CNS)	TGI (SF-539 CNS)	GI50 (HCC-2998 colon)	TGI (HCC-2998 colon)
COc1ccc(/C=C2/CN(CCC#N)C/C(=C\c3ccc(OC)cc3)C2=O)cc1	2.82 µM	> 100	1.7 µM	4.03 µM	5.24 µM	51.8 µM	1.9 µM	3.9 µM	2.67 µM	> 100	1.99 µM	4.33	4.42 µM	> 100	2.46 µM	> 100 µM	2.12 µM	5.42 µM	1.9 µM	3.47 µM
OCc1ccc(N(Cc2ccc(F)cc2)CC2CCC2)cc1Cl	2.04 µM	8.51	14.7 µM	29.2 µM	14.8 µM	27.9 µM	12.9 µM	26.2 µM	11.8 µM	24.8	12.3 µM	25.8	2.18 µM	14.6	15.1 µM	36 µM	16.3 µM	30.4 µM	11.5 µM	25.2 µM
Cc1cc2c(cc1Cl)SC(C(=O)c1ccc(Cl)c(Cl)c1)NS2(=O)=O (stereo not drawn)	97.4 µM	> 100	22.6 µM	48.7 µM	33.7 µM	91.4 µM	36.1 µM	> 100 µM	32.5 µM	> 100	37.3 µM	97	27.1 µM	71.5	27.9 µM	61.2 µM	19.8 µM	42.2 µM	19.8 µM	35.1 µM
COc1c2ccccc2c(O)c2c(=O)ccn(C)c12	8.59 µM	52.9	2.02 µM	11.3 µM	75.1 µM	> 100 µM	16.5 µM	> 100 µM	15 µM	57.6	17.2 µM	66.4	30.3 µM	> 92	26.8 µM	> 100 µM	11.5 µM	89.6 µM	3.68 µM	20 µM
CC[C@@]1(O)C(=O)NCc2c1cc1n(c2=O)Cc2cc3c(NC(C)=O)cccc3nc2-1	> 100 µM	> 100	> 100 µM	> 100 µM	> 100 µM	> 100 µM	> 100 µM	> 100 µM	> 100 µM	> 100	> 100 µM	> 100	> 100 µM	> 100	> 100 µM	> 100 µM	> 100 µM	> 100 µM	> 100 µM	> 100 µM
CCN(CCO)CCCOc1ccc2c(Nc3cc(CC(=O)Nc4cccc(F)c4)[nH]n3)ncnc2c1	> 36.5 µM	> 100	10.6 µM	32.2 µM and > 3.26 µM	15.6 µM	> 57.1 µM	13.4 µM	66.2 µM and > 10 µM	17.7 µM	> 64.8	> 70.1 µM	> 100	19.4 µM	> 100	< 0.01 µM and 0.0047 µM	47.9 µM and > 5.1 µM		22.2 µM and > 2.7 µM	20.8 µM	61.9 µM and > 3.75 µM
CN1CCN(c2ccc(Nc3ncc4cc5n(c4n3)C3(CCCCC3)CNC5=O)nc2)CC1	0.397 µM	14.3	0.589 µM	10.4 µM	11.4 µM	68.2 µM	0.397 µM	19.2 µM	0.627 µM	28.9	1.53 µM	17	2.86 µM	15.4	0.203 µM	3.6 µM	2.29 µM	6.72 µM	6.14 µM	30.4 µM
C[C@H](c1ccccc1)N(CCC(=O)O)C(=O)CCN(C(=O)CCN(C(=O)CCN[C@H](C)c1ccccc1)[C@H](C)c1ccccc1)[C@H](C)c1ccccc1	> 100 µM	> 100	> 100 µM	> 100 µM	> 100 µM	> 100 µM	> 100 µM	> 100 µM	> 100 µM	> 100	> 100 µM	> 100	> 100 µM	> 100	> 100 µM	> 100 µM	> 100 µM	> 100 µM	> 100 µM	> 100 µM
N=C1C(c2nc3ccccc3s2)=C(O)CN1c1cc(Cl)cc(Cl)c1	> 100 µM	> 100	> 100 µM	> 100 µM	> 100 µM	> 100 µM	> 100 µM	> 100 µM	> 100 µM	> 100	88.7 µM	> 100	37.4 µM	> 100	> 100 µM	> 100 µM	34.3 µM	> 100 µM	> 100 µM	> 100 µM
COc1cc(NC(C)CCCN2C(=O)c3ccccc3C2=O)c2ncccc2c1OC (stereo not drawn)	29.5 µM	74.4	28.2 µM	> 100 µM	> 100 µM	> 100 µM	36.3 µM	> 100 µM	24.9 µM	71.1	54.1 µM	> 100	11.8 µM	> 100	49.2 µM	> 100 µM	78 µM	> 100 µM	33.1 µM	> 100 µM
COc1cccc(/C=C\c2ccnc3ccccc23)c1		> 10		> 10 µM		> 10 µM		> 10 µM		> 10		> 10		> 10		> 10 µM		> 10 µM		> 10 µM
COC1=CC2CCN3Cc4cc5c(cc4C(C1O)C23)OCC5 (stereo not drawn)	2.49 µM	8.36	0.587 µM	3.18 µM	1.84 µM	> 100 µM	0.97 µM	9.48 µM	2.67 µM	> 47	2.47 µM	> 61.9	1.33 µM	22.8		> 100 µM	3.95 µM	21.3 µM	1.09 µM	7.37 µM
Cn1cc(C2=C(c3c(S(C)=O)n(C)c4ccccc34)C(=O)NC2=O)c2ccccc21 (stereo not drawn)	6.04 µM	> 25	13.7 µM	> 25 µM	7.87 µM	> 25 µM	7.51 µM	> 25 µM	8.19 µM	> 25	> 19.9 µM	> 25	16.1 µM	> 25	7.19 µM	> 25 µM	6.35 µM	> 20.1 µM	18.9 µM	> 25 µM
Nc1ccc(C(=O)Nc2ccccc2N)cc1		> 100		> 75.8 µM		> 100 µM		> 100 µM		> 100		> 100		> 76.5		> 82 µM		> 100 µM		> 100 µM
CNc1ncc2cc(-c3cc(NC(=O)NCCC(C)(C)C)c(F)cc3C)c(C)nc2n1	0.437 µM and 0.2 µM	> 100	0.102 µM and 0.0573 µM	2.23 µM and 2 µM	0.359 µM and 0.431 µM	4.36 µM and 5.87 µM	0.0177 µM and 0.0194 µM	> 41.5 µM	17.4 µM and 6.93 µM	> 100	0.811 µM and 0.81 µM	> 100	0.543 µM and 0.785 µM	> 100	10.1 µM and > 9.36 µM	> 100 µM	0.526 µM and 1.05 µM	9.49 µM and > 10 µM	0.283 µM and 0.207 µM	> 77.2 µM
